In ChEMBL document CHEMBL5046260, “Anti-inflammatory Dimeric Tetrahydroxanthones from an Endophytic Muyocopron laterale” (J Nat Prod, 2022):
pIC50: −log10 of the molar value.

Key:
RAW264.7 [1] = assay: Antiinflammatory activity in mouse RAW 264.7 cells assessed as inhibition of LPS-induced NO production at 10 uM measured after 24 hrs by Griess assay relative to control; format: functional; set-up: scale not given: the % may be the effect or the level left
RAW264.7 [2] = assay: Antiinflammatory activity in mouse RAW 264.7 cells assessed as inhibition of LPS-induced NO production measured after 24 hrs by Griess assay; format: functional, cell-based; details: RAW264.7, 24 h

SMILES | Activity (RAW264.7 [1]) | pIC50 (RAW264.7 [2])
CO[C@H]1CC=C2C(=O)c3c(cc(C)c(-c4c(C)cc5c(c4O)C(=O)C4=C(O)C[C@H](OC)[C@H](O)[C@]4(C)O5)c3O)O[C@@]2(C)[C@H]1O | 89.8% | 5.89
CO[C@H]1CC(=O)O[C@@H]1[C@@]1(C)CC(=O)c2c(cc(C)c(-c3c(C)cc4c(c3O)C(=O)C[C@@](C)([C@H]3OC(=O)C[C@@H]3OC)O4)c2O)O1 | 16.2% | < 5.00
CO[C@H]1CC(=O)O[C@@H]1[C@]1(C)CC(=O)c2c(cc(C)c(-c3c(C)cc4c(c3O)C(=O)C[C@@](C)([C@H]3OC(=O)C[C@@H]3OC)O4)c2O)O1 | 5.9% | < 5.00
CO[C@H]1CC(=O)O[C@@H]1[C@@]1(C)CC(=O)c2c(cc(C)c(-c3c(C)cc4c(c3O)C(=O)C[C@](C)([C@H]3OC(=O)C[C@@H]3OC)O4)c2O)O1 | 72% | 5.28
CO[C@H]1CC(=O)O[C@@H]1[C@]1(C)CC(=O)c2c(cc(C)c(-c3c(C)cc4c(c3O)C(=O)C3=C(O)C[C@H](OC)[C@H](O)[C@]3(C)O4)c2O)O1 | 36.6% | < 5.00
COc1cc(/C=C/C(=O)CC(=O)/C=C/c2ccc(O)c(OC)c2)ccc1O [CURCUMIN] | 79.2% | 5.66
CO[C@H]1CC(=O)O[C@@H]1[C@@]1(C)CC(=O)c2c(cc(C)c(-c3c(C)cc4c(c3O)C(=O)C3=C(O)C[C@H](OC)[C@H](O)[C@]3(C)O4)c2O)O1 | 13.2% | < 5.00
CO[C@H]1CC(=O)O[C@@H]1[C@]1(C)CC(=O)c2c(O)cc(C)c(-c3c(C)cc4c(c3O)C(=O)C3=C(O)C[C@H](OC)[C@H](O)[C@]3(C)O4)c2O1 | 52.7% | < 5.00
CO[C@H]1CC(=O)O[C@@H]1[C@@]1(C)CC(=O)c2c(cc(C)c(-c3c(C)cc(O)c4c3O[C@](C)([C@H]3OC(=O)C[C@@H]3OC)CC4=O)c2O)O1 | 7.6% | < 5.00
CO[C@H]1CC(=O)O[C@@H]1[C@]1(C)CC(=O)c2c(O)cc(C)c(-c3c(C)cc4c(c3O)C(=O)C3=CC[C@H](OC)[C@H](O)[C@]3(C)O4)c2O1 | 33.2% | < 5.00
CO[C@H]1CC(O)=C2C(=O)c3c(cc(C)c(-c4c(C)cc5c(c4O)C(=O)C4=C(O)C[C@H](OC)[C@H](O)[C@]4(C)O5)c3O)O[C@@]2(C)[C@H]1O | 52.7% | < 5.00
CO[C@H]1CC(=O)O[C@@H]1[C@@]1(C)CC(=O)c2c(cc(C)c(-c3c(C)cc4c(c3O)C(=O)C3=CC[C@H](OC)[C@H](O)[C@]3(C)O4)c2O)O1 | 84.4% | 5.29
